According to paper PMC5300872, “Convergent evolution of the arginine deiminase pathway: the ArcD and ArcE arginine/ornithine exchangers” (MicrobiologyOpen, 2016):

Biological target: T1, ArcD1 (Lactococcus cremoris, UniProt A2RNI5)
T1 construct: plasmid pNZarcD1, nisin-inducible; expressed in L. lactis deltaarcD1D2 cells
T1 sequence (A2RNI5 1-526): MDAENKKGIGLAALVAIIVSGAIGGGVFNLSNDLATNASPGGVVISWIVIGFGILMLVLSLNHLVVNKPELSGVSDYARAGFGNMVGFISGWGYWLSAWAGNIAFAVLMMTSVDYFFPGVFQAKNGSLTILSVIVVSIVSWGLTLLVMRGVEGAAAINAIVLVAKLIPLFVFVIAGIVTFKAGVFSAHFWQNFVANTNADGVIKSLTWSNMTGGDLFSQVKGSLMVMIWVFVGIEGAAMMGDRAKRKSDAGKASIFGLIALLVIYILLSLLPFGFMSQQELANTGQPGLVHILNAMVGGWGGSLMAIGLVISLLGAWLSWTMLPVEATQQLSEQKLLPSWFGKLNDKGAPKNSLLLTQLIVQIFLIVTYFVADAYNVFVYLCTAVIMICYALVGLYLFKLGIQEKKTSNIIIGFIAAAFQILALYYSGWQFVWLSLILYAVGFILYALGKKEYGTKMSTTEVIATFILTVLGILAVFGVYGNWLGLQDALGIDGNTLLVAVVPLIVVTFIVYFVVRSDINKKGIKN
Test: inhibition of […]L-ornithine uptake in resting cells
Assay type: cell-based
Settings: read-out: ArcD1 / KI ^b (μm)

Compound `NC(=O)NCCC[C@H](N)C(=O)O` [L‐Citr, L‐citrulline] has a Ki of 529 ± 135 µM.
